According to PubChem BioAssay (NCI):
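Each compound was tested at five concentrations against cells in 96-well plates for 48 hours. GI50 marks 50% less growth. TGI: total growth inhibition.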

What was measured:
Assay in all cases: DTP human tumour cell line panel, 48 h
[1] = system: EKVX NSCLC
[2] = system: SF-295 CNS
[3] = system: IGROV1 ovarian
[4] = system: SR leukemia
[5] = system: RXF 393 renal
[6] = system: HS 578T breast
[7] = system: SNB-19 CNS
[8] = system: BT-549 breast
[9] = system: HOP-92 NSCLC
[10] = system: HL-60(TB) leukemia
[11] = system: PC-3 prostate
[12] = system: NCI-H226 lung
[13] = system: MALME-3M melanoma
[14] = system: SN12C renal
[15] = system: TK-10 renal
[16] = system: OVCAR-5 ovarian
[17] = system: KM12 colon
[18] = system: UACC-257 melanoma
[19] = system: NCI-H23 lung
[20] = system: MDA-MB-231 breast
[21] = system: HOP-62 NSCLC
[22] = system: SF-539 CNS
[23] = system: RPMI-8226 leukemia
[24] = system: K-562 leukemia
[25] = system: MDA-MB-435
[26] = system: HCT-15 colon
[27] = system: SF-268 CNS
[28] = system: M14 melanoma
[29] = system: NCI-H460 lung
[30] = system: HT29 colon
[31] = system: CCRF-CEM leukemia
[32] = system: T-47D breast
[33] = system: A498 renal
[34] = system: UO-31 renal
[35] = system: SK-MEL-28 melanoma
[36] = system: COLO 205 colon
[37] = system: ACHN renal
[38] = system: HCC-2998 colon
[39] = system: MCF7 breast
[40] = system: SW-620 colon
[41] = system: SK-MEL-2 melanoma
[42] = system: UACC-62 melanoma
[43] = system: SNB-75 CNS
[44] = system: CAKI-1 renal
[45] = system: NCI-H522 lung
[46] = system: SK-MEL-5 melanoma
[47] = system: DU-145 prostate
[48] = system: OVCAR-4 ovarian
[49] = system: LOX IMVI melanoma
[50] = system: MOLT-4 leukemia
[51] = system: A549 NSCLC
[52] = system: 786-0 renal
[53] = system: OVCAR-8 ovarian
[54] = system: SK-OV-3 ovarian
[55] = system: HCT-116 colon
[56] = system: U251 CNS
[57] = system: OVCAR-3 ovarian

With `NCCCNc1nc2ccccc2c2c(=O)c3cccc(F)c3sc12` the GI50 [1] was 1500 nM, the TGI [1] was 3000 nM and the GI50 [2] was 1740 nM. For the same molecule, the TGI [2] was 3190 nM, the GI50 [3] was 798 nM and the TGI [3] was 2220 nM. It also gave a GI50 [4] of 1570 nM, a TGI [4] greater than 100000 nM and a GI50 [5] of 1430 nM. For the same molecule, the TGI [5] was 2810 nM, the GI50 [6] was 1720 nM and the TGI [6] was 3970 nM. It also gave a GI50 [7] of 1570 nM, a TGI [7] of 3000 nM and a GI50 [8] of 11500 nM. The TGI [8] was 29600 nM, the GI50 [9] was 1290 nM and the TGI [9] was 3390 nM. It also gave a GI50 [10] of 1880 nM, a TGI [10] of 3950 nM and a GI50 [11] of 1670 nM. For the same molecule, the TGI [11] was 3260 nM, the GI50 [12] was 1450 nM and the TGI [12] was 3060 nM. For the same molecule, the GI50 [13] was 1570 nM, the TGI [13] was 3050 nM and the GI50 [14] was 1280 nM. The TGI [14] was 2700 nM, the GI50 [15] was 1940 nM and the TGI [15] was 3470 nM. The GI50 [16] was 1600 nM, the TGI [16] was 3010 nM and the GI50 [17] was 1610 nM. For the same molecule, the TGI [17] was 3040 nM, the GI50 [18] was 1970 nM and the TGI [18] was 3810 nM. It also gave a GI50 [19] of 1540 nM, a TGI [19] of 3030 nM and a GI50 [20] of 1280 nM. The TGI [20] was 2750 nM, the GI50 [21] was 1500 nM and the TGI [21] was 3150 nM. For the same molecule, the GI50 [22] was 1590 nM, the TGI [22] was 2970 nM and the GI50 [23] was 2030 nM. For the same molecule, the TGI [23] was 4750 nM, the GI50 [24] was 1360 nM and the TGI [24] was 4150 nM. It also gave a GI50 [25] of 1770 nM, a TGI [25] of 3390 nM and a GI50 [26] of 1130 nM. For the same molecule, the TGI [26] was 2390 nM, the GI50 [27] was 1470 nM and the TGI [27] was 3350 nM. For the same molecule, the GI50 [28] was 1800 nM, the TGI [28] was 3560 nM and the GI50 [29] was 493 nM. For the same molecule, the TGI [29] was 1770 nM, the GI50 [30] was 1250 nM and the TGI [30] was 2690 nM. For the same molecule, the GI50 [31] was 1420 nM, the TGI [31] was 4160 nM and the GI50 [32] was 1580 nM. The TGI [32] was 3740 nM, the GI50 [33] was 1670 nM and the TGI [33] was 3100 nM. For the same molecule, the GI50 [34] was 1010 nM, the TGI [34] was 2240 nM and the GI50 [35] was 1770 nM. For the same molecule, the TGI [35] was 3230 nM, the GI50 [36] was 1600 nM and the TGI [36] was 3690 nM. For the same molecule, the GI50 [37] was 1200 nM, the TGI [37] was 2430 nM and the GI50 [38] was 1640 nM. The TGI [38] was 3410 nM, the GI50 [39] was 1010 nM and the TGI [39] was 2400 nM. It also gave a GI50 [40] of 1100 nM, a TGI [40] of 2490 nM and a GI50 [41] of 1770 nM. The TGI [41] was 3660 nM, the GI50 [42] was 1670 nM and the TGI [42] was 3130 nM. The GI50 [43] was 1610 nM, the TGI [43] was 3210 nM and the GI50 [44] was 1420 nM. The TGI [44] was 2750 nM, the GI50 [45] was 1610 nM and the TGI [45] was 3280 nM. It also gave a GI50 [46] of 1690 nM, a TGI [46] of 3080 nM and a GI50 [47] of 1230 nM. It also gave a TGI [47] of 2530 nM, a GI50 [48] of 1760 nM and a TGI [48] of 3580 nM.
For `CC(c1ccccc1)N1C(=O)CSC1=S` (centres undefined), the GI50 [1] was 7570 nM, the TGI [1] was greater than 100000 nM and the GI50 [2] was 2860 nM. For the same molecule, the GI50 [3] was 129 nM, the TGI [3] was 697 nM and the GI50 [4] was 109 nM. It also gave a TGI [4] greater than 100000 nM, a GI50 [49] of 446 nM and a TGI [49] of 19500 nM. The GI50 [5] was 747 nM, the TGI [5] was 6270 nM and the GI50 [6] was 779 nM. The GI50 [50] was 1750 nM, the TGI [50] was greater than 100000 nM and the GI50 [51] was 4670 nM. For the same molecule, the TGI [51] was greater than 59100 nM, the GI50 [7] was 302 nM and the TGI [7] was 1100 nM. The GI50 [52] was 628 nM, the TGI [52] was greater than 100000 nM and the GI50 [8] was 2460 nM. The TGI [8] was 36000 nM, the GI50 [9] was 4290 nM and the TGI [9] was greater than 100000 nM. For the same molecule, the GI50 [10] was 140 nM, the TGI [10] was 1450 nM and the GI50 [53] was 2000 nM. For the same molecule, the TGI [53] was greater than 100000 nM, the GI50 [11] was 989 nM and the TGI [11] was greater than 100000 nM. It also gave a GI50 [12] of 3560 nM, a TGI [12] greater than 100000 nM and a GI50 [13] of 7390 nM. For the same molecule, the TGI [13] was greater than 100000 nM, the GI50 [14] was 701 nM and the TGI [14] was greater than 100000 nM. For the same molecule, the GI50 [15] was 8780 nM, the TGI [15] was greater than 93300 nM and the GI50 [54] was 2390 nM. The TGI [54] was greater than 81800 nM, the GI50 [16] was 4050 nM and the TGI [16] was 49400 nM. The GI50 [17] was 49.5 nM, the TGI [17] was 438 nM and the GI50 [18] was 3220 nM. It also gave a TGI [18] of 33800 nM, a GI50 [19] of 6820 nM and a TGI [19] greater than 46000 nM. For the same molecule, the GI50 [20] was 463 nM, the TGI [20] was greater than 23800 nM and the GI50 [21] was 526 nM. The TGI [21] was 14400 nM, the GI50 [22] was 228 nM and the GI50 [23] was 382 nM. It also gave a TGI [23] of 34200 nM, a GI50 [24] of 346 nM and a TGI [24] greater than 100000 nM. For the same molecule, the GI50 [25] was 319 nM, the TGI [25] was 7210 nM and the GI50 [26] was 659 nM. It also gave a TGI [26] greater than 100000 nM, a GI50 [27] of 1010 nM and a TGI [27] of 45700 nM. The GI50 [55] was 137 nM, the TGI [55] was 1380 nM and the GI50 [28] was 332 nM. For the same molecule, the TGI [28] was 2990 nM, the GI50 [29] was 970 nM and the GI50 [30] was 362 nM. For the same molecule, the GI50 [31] was 941 nM, the TGI [31] was greater than 100000 nM and the GI50 [32] was 4100 nM. The TGI [32] was 70600 nM, the GI50 [33] was 7320 nM and the TGI [33] was 55300 nM. The GI50 [34] was 5730 nM, the TGI [34] was greater than 83500 nM and the GI50 [35] was 3520 nM. For the same molecule, the TGI [35] was 54100 nM, the GI50 [36] was 300 nM and the TGI [36] was 1080 nM. For the same molecule, the GI50 [37] was 3610 nM, the TGI [37] was greater than 100000 nM and the GI50 [38] was 3080 nM. The TGI [38] was 8860 nM, the GI50 [39] was 58.3 nM and the TGI [39] was 13700 nM. It also gave a GI50 [56] of 400 nM, a TGI [56] of 16500 nM and a GI50 [40] of 418 nM. It also gave a TGI [40] greater than 38500 nM, a GI50 [41] of 604 nM and a TGI [41] of 12400 nM. For the same molecule, the GI50 [42] was 330 nM, the TGI [42] was 10700 nM and the GI50 [43] was 2890 nM. For the same molecule, the TGI [43] was greater than 22200 nM, the GI50 [44] was 1330 nM and the GI50 [57] was 232 nM. The TGI [57] was 1230 nM, the GI50 [45] was 114 nM and the TGI [45] was 3810 nM. It also gave a GI50 [46] of 1860 nM, a TGI [46] of 9830 nM and a GI50 [47] of 379 nM. It also gave a TGI [47] of 3660 nM, a GI50 [48] of 1360 nM and a TGI [48] greater than 100000 nM.
